Measurements taken from patent publication US6693102B2, “Pyridine-substituted pyrazolopyridine derivatives” (Bayer Aktiengesellschaft, priority 2000, dated 2004).

System: rabbit aorta rings
Experiment: Vasorelaxant action in vitro (phenylephrine-contracted rabbit aorta rings)
Settings: Oryctolagus cuniculus, phenylephrine contraction, 37° C., 0.1% DMSO
Method: Rabbits are stunned by a blow to the neck and exsanguinated. The aorta is removed, freed from adherent tissue, divided into rings 1.5 mm wide and individually transferred under a pretension to 5 ml organ baths containing carbogen-aerated Krebs-Henseleit solution of the following composition (mM) at 37° C.: NaCl: 119; KCl: 4.8; CaCl2×2H2O: 1; MgSO4×7H2O; 1.4; KH2PO4: 1.2; NaHCO3:25; Glucose: 10. The contractile force is determined using Statham UC2 cells, amplified and digitalized by means of A/D converters (DAS-1802 HC, Keithley Instruments Munich), and recorded in parallel on linear recorders. To produce a contraction, phenylephrine is added to the bath cumulatively in increasing concentration. After several control cycles, the substance to be investigated is investigated in each further passage in increasing dose in each case and the height of the contraction is compared with the height of the contraction reached in the last previous passage. From this, the concentration is calculated which is necessary in order to reduce the height of the control value by 50% (IC50). The standard administration volume is 5 μl and the proportion of DMSO in the bath solution corresponds to 0.1%.

SMILES | IC50
Nc1nc(-c2nn(Cc3ccccc3F)c3ncccc23)ncc1-c1ccncc1 [Example 1, 2-[1-[(2-Fluorophenyl)methyl]-1H-pyrazolo[3,4-b]pyridin-3-yl]-5-(4-pyridinyl)-4-pyrimidinamine] | 660 nM
Nc1nc(-c2nn(Cc3ccccc3F)c3ncccc23)nc(N)c1-c1ccncc1 [Example 4, 2-[1-(2-fluorobenzyl)-1H-pyrazolo[3,4-b]pyridine-3-yl]-5-(4-pyridinyl)-4,6-pyrimidine diamine] | 1210 nM
